Values after ≈ are worked out from the molar mass of the structure shown. Read-outs that look alike come from different tables or passages of the source.
Key:
CB1 receptor = target: T1, CB1 receptor (Mus musculus, UniProt P47746); experiment: Binding of [3H]SR141716A to membranes of N18TG2 cells; conditions: cell membranes, 300 pM ligand, 90' at 30° C.; read-out: Ki CB1 Receptor N18TG2 cells Lig. [3H]SR141716A
T1 construct: endogenous in cells; host or cells: mouse N18TG2 neuroblastoma cells
Source text: (§1) Effect of alkanolamide molecules on the binding of the synthetic ligands of the CB2 and CB1 cannabinoid receptors, respectively.
(§2) Rat RBL-2H3+ leukemic basophilic cells, which selectively express the cannabinoid CB2 receptor, and mouse N18TG2 neuroblastoma cells which selectively express the CB1 cannabinoid receptor were used. The cells were cultivated as described above (Facci L. et al. (1995) Proc. Natl: Acad: Sci. U.S.A. 92:: 3376-3380; Bisogno T. et al. 1997 J. Biol. Chem., 272: 3315-3323). WIN 55,212.2 was used as the selectively agonist synthetic ligand for the CB2 receptor.
SR141716A was used as the selective antagonist for the CB1 receptor.
(§3) [^3H]SR141716A (55 Ci/mmol) was supplied by Amersham; [^3H]WIN55,212-2 (43 Ci/mmol) was supplied by NEN. The binding tests were performed with membranes of the cells resuspended in 50 mMol Tris pH 7.0 buffer; 2.5 mMol MgCl2, 0.8 mMol EDTA; 0.05% bovine serum albumin (BSA); 0.01% ethanol, in the presence of 100 μM of phenyl-methyl-sulphonyl fluoride (PMSF-Sigma), with the use, of 300 pM of [^3H]SR141716A and of [^3H]WIN55,212-2, respectively, as the ligand.
(§4) The membranes were incubated for 90′ at 30° C. and filtered on glass microfibre filters (GFC-Whatman) and the radioactivity was detected by liquid scintillation. The specific binding was calculated with the use of either 10 μM SR141716A or 10 μM HU-210.
(§5) The Ki values were calculated by Chang-Prusoff's equation and expressed as concentration μM.

CB2 receptor [1] = target: T2, CB2 receptor (Rattus norvegicus, UniProt Q9QZN9); experiment: Binding of [3H]WIN55,212-2 to membranes of RBL-2H3+ cells; conditions: cell membranes, 300 pM ligand, 90' at 30° C.; read-out: Ki CB2 receptor RBL-2H3 + cells Lig. [3H]WIN55, 212-2
T2 construct: endogenous in cells; host or cells: rat RBL-2H3+ leukemic basophilic cells
T2 sequence (Q9QZN9 1-360): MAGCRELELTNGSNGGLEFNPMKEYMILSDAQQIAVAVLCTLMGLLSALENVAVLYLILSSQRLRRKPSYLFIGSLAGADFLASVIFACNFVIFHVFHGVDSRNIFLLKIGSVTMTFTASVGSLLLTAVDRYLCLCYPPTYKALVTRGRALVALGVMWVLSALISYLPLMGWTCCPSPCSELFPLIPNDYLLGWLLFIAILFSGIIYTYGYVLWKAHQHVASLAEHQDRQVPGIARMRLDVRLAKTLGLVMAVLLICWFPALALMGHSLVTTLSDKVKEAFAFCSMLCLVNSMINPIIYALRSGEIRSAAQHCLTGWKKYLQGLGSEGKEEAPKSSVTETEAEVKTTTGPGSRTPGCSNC
Source text: as §1, §2
HU-210 was used as the selective […] for the CB2 receptor.
as §3, §4, §5

[2] = Lipid/water partition parameter RM from thin-film chromatography on silica gel; format: physicochemical; conditions: for ΔRM solvent 1 / RM solvent 1 / RF solvent 1: Solvent 1: 100% ethyl acetate; for ΔRM solvent 1 / ΔRM solvent 2: RM of derivative minus RM of corresponding alkanolamide; for RM solvent 1 / RM solvent 2: RM=log (1/Rf−1); for RF solvent 1 / RF solvent 2: silica gel; for ΔRM solvent 2 / RM solvent 2 / RF solvent 2: Solvent 2: heptane:isopropanol:ethyl acetate:H2O 40:20:50:2
Protocol: The chemical and physical characteristics of the derivatives according to the invention were evaluated by quantitative measurement of the lipid/water partition parameter.
A useful parameter for evaluating the properties of a compound in relation to its possible absorption is in fact constituted by the coefficient of partition between the lipid phase and the aqueous phase, which is considered to be an expression of its lipophilicity and its degree of hydrophilicity. […] For the purpose of evaluating the characteristics of the derivatives of the invention, the partition parameter RM between the lipid and the aqueous phase, extrapolated from thin-film partition chromatography, was calculated; this parameter is commonly used to evaluate the lipophilic characteristics of compounds (Tomlinson E. J. Chromatogr. 1975, 113, 1) and is commonly used, for example, for local anaesthetics, in which a correlation has been shown between this parameter and biological activity (Bachrata M. et al. J. Chromatogr. 1979, 171, 29-36).
The partition parameter RM between the lipid phase and the aqueous phase was calculated both for the derivatives and for the non-substituted alkanolamides, from the Rf value obtained by thin-film chromatography on silica gel (particles of […], mean porosity 60 Å, thickness 0.25 mm on glass plate) in accordance with the formula: RM=log (1/Rf−1) and the ΔRM was obtained from the difference between the RM coefficients of the derivative and of the corresponding alkanolamide.

[3] = Solubility in water and in organic solvents (chemical and physical characteristics); conditions: for solubility in water: in words
physchem = conditions: organic solvent or mixture
CB2 receptor [4] = target: T2, CB2 receptor; experiment: Stimulation of cyclic AMP (cAMP) by forskolin in RBL-2H3+ cells; format: cell-based; conditions: 1 μM forskolin
Protocol: Effect of alkanolamide molecules on the stimulation of cyclic AMP (cAMP) by forskolin.
The tests were performed with the aim of checking whether the binding of the molecules of the present invention to the CB2 receptor has functional significance.
It is in fact known that the function activation of the CB2 receptor brings about, at intracellular level, inhibition of the enzymatic activity of adenylate cyclase and a reduction in the levels of the second-messenger cAMP, resulting in an increase in the conductance of the channels to potassium and an inhibition of proteic phosphorylation (Childers S. R. et al. Biochem. Parmacol. 1996, 52: 819-827).
The dosages of cAMP were performed on RBL-2H3+ cells flowing together in Petri dishes with six wells (Falcon); the cells were stimulated for 10′ at 37° C. with 1 μM of forskolin (Fluka) in 400 μl of medium without serum, containing 20 mM HEPES, 0.1 mg/ml BSA and 0.1 mM 1-methyl-3-isobutyl xanthine (Sigma) and either ethanol or alkanolamide molecules with or without the addition of HU-210. After incubation, the cells were extracted and the levels of cAMP were evaluated with a suitable Amersham kit in accordance with the producer's method. The data were expressed in IC50 μM.

[5] = 10' at 37° C., read-out: IC50 on forskolin-stimulated cAMP
[6] = + HU-210 (0.5 μM), read-out: IC50 on forskolin-stimulated cAMP with HU-210

T1 sequence (P47746 whole entry): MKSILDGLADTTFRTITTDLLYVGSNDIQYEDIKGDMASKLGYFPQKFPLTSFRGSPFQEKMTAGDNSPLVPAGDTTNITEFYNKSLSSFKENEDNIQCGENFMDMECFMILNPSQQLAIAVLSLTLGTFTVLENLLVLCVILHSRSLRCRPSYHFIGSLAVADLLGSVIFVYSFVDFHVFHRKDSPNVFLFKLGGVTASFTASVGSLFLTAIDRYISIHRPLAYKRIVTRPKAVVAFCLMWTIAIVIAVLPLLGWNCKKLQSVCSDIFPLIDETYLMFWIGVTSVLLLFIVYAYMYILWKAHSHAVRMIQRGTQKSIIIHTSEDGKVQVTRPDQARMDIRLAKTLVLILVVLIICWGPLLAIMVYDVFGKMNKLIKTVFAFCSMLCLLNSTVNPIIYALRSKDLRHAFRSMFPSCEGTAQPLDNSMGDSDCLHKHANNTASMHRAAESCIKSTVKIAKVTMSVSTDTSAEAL

Compound	Ki (CB1 receptor) [nM]	Ki (CB2 receptor [1]) [nM]	ΔRM solvent 1 [2]	RM solvent 1 [2]	RF solvent 1 [2]	ΔRM solvent 2 [2]	RM solvent 2 [2]	RF solvent 2 [2]	solubility in water [3]	solubility (physchem; ethanol) [µg/mL]	solubility (physchem; n-octanol) [µg/mL]	IC50 (CB2 receptor [4]; [5]) [nM]	IC50 (CB2 receptor [4]; [6]) [nM]	solubility in organic solvents: ethanol ([3]; ethanol)
CCCCCCCCCCCCCCCC(=O)NCCOC(=O)NCC(=O)OCC [Example 6, N-[2-[(ethoxycarbonylmethyl)aminocarbonyl]oxyethyl] hexadecanamide]	> 15000	1 ± 0.8	−0.612	0.176	0.40	−0.175	−0.140	0.58	slightly soluble	10000 (≈ 23.3 mM)	10000 (≈ 23.3 mM)	1900	> 20000	–
N,N^1-bis[2-(ethoxycarbonyl)oxyethyl] nonandiamide [Example 4]	> 15000	2 ± 0.9	−0.866	−0.477	0.75	−0.723	−0.035	0.52	slightly soluble	–	–	1800	> 20000	10 mg/ml in ethanol,
